{"source": "patent US20250161408A1", "about": "“PEPTIDIC INHIBITORS OF AMYLOID SELF- AND CROSS-ASSEMBLY” (TECHNISCHE UNIVERSITÄT MÜNCHEN, priority 2022, published 2025)", "key": {"[1]": {"molecular_target": "T1, IAPP (Homo sapiens, UniProt P10997)", "T1 construct": "made in house; host or cells: chemical synthesis (Fmoc-SPPS), air-oxidised, RP-HPLC purified", "T1 sequence (P10997 34-70 limits assumed)": "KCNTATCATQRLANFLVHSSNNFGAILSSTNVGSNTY", "assay": "MTT reduction assay of IAPP-mediated cell damage in RIN5fm cells", "type": "cell-based", "conditions": "for Effect on formation of cytotoxic IAPP assemblies (MTT reduction): aged (24 h or 7 days) IAPP/peptide 1/2 solutions; for IC50: read-out: IC50 (±SD) of inhibitory effects of ACMs on IAPP-mediated cell damage", "description": "Briefly, cells were cultivated and platted in 96-well plates. Aliquots of solutions used for the ThT binding assays (see “ThT binding assays”) were diluted with cell medium at the indicated incubation time points (24 h or 7 days) and added to the cells at the indicated final concentrations. Following incubation with the cells for ˜20 h (37° C., humidified atmosphere, 5% CO2) cell damage was assessed by measuring cellular MTI reduction. IC50 values were determined."}, "[2]": {"molecular_target": "T2, Aβ42 (Homo sapiens, UniProt P05067)", "T2 construct": "the 40(42)-residue peptide Aβ40(42); made in house; host or cells: chemical synthesis (Fmoc-SPPS), monomer isolated by SEC", "assay": "ThT binding assay of Aβ42 fibrillogenesis (self-assembly, seeding, cross-seeding)", "type": "biochemical", "conditions": "Aβ42 5 μM, Aβ42/peptide 1/1", "description": "Aβ42 fibrillogenesis-related studies. […] Peptide incubations were performed in the presence of ThT in 96-well black MTPs (FluoroNunc, Thermo Fisher Scientific). […] Values of seeds or buffer alone were subtracted from the data in self-/cross-seeding assays; all other data shown are raw data except for data in FIG. 27b which were normalized).\nIncubations (37° C.) and determination of ThT fluorescence were performed as for all other Aβ42-related studies."}, "[3]": {"test_system": "cultured murine BV2 microglia", "assay": "Phagocytosis of Aβ42 species with or without ACM", "type": "cell-based, mouse", "conditions": "1/1, co-incubation 2 h", "description": "Briefly, BV2 cells were maintained in GlutaMAX-supplemented RPMI1640 medium containing 10% FBS and 1% penicillin/streptomycin on poly-L-ornithine-coated flasks. For the phagocytosis assay, BV2 cells were seeded into 24-well plates containing coverslips in serum-free RPMI1640-GlutaMAX and further incubated for 24 h (5% CO2, 37° C.) to reach 10000 cells/well. Primary BMDMs were obtained from bone-marrow monocytes isolated from wildtype C57BL/6 mice, plated in 24-well plates at a density of 10000cells/well, and differentiated with L929 cell-conditioned medium (RPMI1640, 10% FBS, 1% penicillin/streptomycin) for 7 days. Thereafter, cells were incubated with aged peptide solutions at 37° C. for 6 h. […]\nFollowing incubation of the cells with the peptides, supernatants were removed and cells on the coverslips were washed 5 times with ice-cold 1×PBS, fixed with 4% paraformaldehyde, washed with 1×PBS, permeabilized with 0.2% Triton-X 100, and rinsed three times with cold 1×PBS. […] Images were acquired using a Leica DMi8 fluorescence microscope. The percentage of cells that had taken up peptides was calculated by dividing the number of BV2 cells or BMDMs that phagocytosed TAMRA-labeled peptide by the total cell count, multiplied by 100. Significance was analyzed by unpaired student's t-test."}, "[4]": {"test_system": "Aβ42-mediated LTP impairment", "assay": "Hippocampal long-term potentiation (LTP) measurements in murine hippocampal slices ex vivo", "design": "species or system mouse", "conditions": "Aβ42 oligomers 50 nM, 24 h aged, 30° C.; oligomers/ACM 1/10", "description": "LTP measurements were performed. Briefly, sagittal hippocampal slices (350 μm) were obtained from C57BL/6N male mice (6-8 weeks) in ice-cold Ringer solution bubbled with a mixture of 95% O2 and 5% CO2 and according to protocols approved by the ethical committee on animal care and use of the government of Bavaria Germany. Extracellular recordings were performed using artificial cerebrospinal fluid (ACSF)-filled glass microelectrodes (2-3 MW) at RT. […] Field excitatory postsynaptic potentials (fEPSPs) were evoked in the hippocampal CA1 dendritic region via two independent inputs by stimulating the Schaffer collateral commissural pathway (Scep). For LTP induction, high-frequency stimulation (HFS; 100 Hz/100 pulses) conditioning pulses were delivered to the same Seep inputs. Both stimulating electrodes were used to utilize the input specificity of LTP, thus allowing for the measurement of an internal control within the same slice. […] Responses were measured for 60 min after HFS. […] Data analysis by 1-way ANOVA and Bonferroni's multiple comparison test."}, "[5]": {"molecular_target": "T2, Aβ42", "assay": "cell-based", "conditions": "read-out: IC50 (±SD) of inhibitory effects of ACMs on Aβ42-mediated cell damage", "description": "Following incubation with the cells for ˜20 h (37° C., humidified atmosphere, 5% CO2), cell damage was assessed by measuring cellular MTT reduction.\nSolutions were aged for 1.5 h (37° C., shaking 500 rpm). Aliquots were diluted with cell medium, incubated with PC12 cells at the indicated final concentrations for ˜20 h and cellular MTT reduction was measured as above."}}, "note": "“Also recorded” adds a separate entry of the source. Non-standard residues stand in square brackets, D forms with d. Residues, ends and D or L forms follow the SMILES beside them. No end group written: not given here. NMeF = CN[C@@H](Cc1ccccc1)C(=O)O; NMeL = CN[C@@H](CC(C)C)C(=O)O; NMeV = CN[C@H](C(=O)O)C(C)C; Nle = CCCC[C@H](N)C(=O)O", "data": [{"molecule": "CCCC[C@H](NC(=O)[C@H](CC(=O)O)NC(=O)[C@H](CCC(=O)O)NC(=O)[C@H](C)NC(=O)[C@H](Cc1ccccc1)NC(=O)[C@H](Cc1ccccc1)N(C)C(=O)[C@@H](NC(=O)[C@H](CC(C)C)N(C)C(=O)[C@H](CCCCN)NC(=O)[C@@H](N)CCC(N)=O)C(C)C)C(=O)N[C@@H](CCCC)C(=O)N[C@@H](CCCC)C(=O)N[C@@H](CC(N)=O)C(=O)N[C@@H](CCCCN)C(=O)NCC(=O)N[C@@H](C)C(=O)N[C@H](C(=O)N[C@H](C(=O)NCC(=O)N[C@@H](CC(C)C)C(=O)N[C@@H](CCCC)C(=O)N[C@H](C(=O)NCC(=O)NCC(=O)N[C@H](C(=O)N[C@H](C(=O)O)C(C)C)C(C)C)C(C)C)[C@@H](C)CC)[C@@H](C)CC", "note": "[Nle3-LF] (H-QK[NMeL]V[NMeF]FAED[Nle][Nle][Nle]NKGAIIGL[Nle]VGGVV-OH)", "values": [{"measurement": "Effect on formation of cytotoxic IAPP assemblies (MTT reduction)", "setting": "[1]; RIN5fm cells", "value": "fully suppressed; also recorded: suppress formation of toxic IAPP assemblies"}, {"measurement": "IC50", "setting": "[1]", "value": 82.1, "unit": "nM"}]}, {"molecule": "Nle3-LVFF: 4-fold N-methylated Nle3-VF analog; N-methylation of all four residues of segment LVFF (QK[NMeL][NMeV][NMeF][NMeF]AED[Nle][Nle][Nle]NKGAIIGL[Nle]VGGVV)", "values": [{"measurement": "Effect on Aβ42 fibrillogenesis / amyloid self-assembly (ThT binding)", "setting": "[2]", "value": "blocks amyloid self-assembly of Aβ42"}]}, {"molecule": "CCCC[C@H](NC(=O)[C@H](CC(C)C)NC(=O)CNC(=O)[C@@H](NC(=O)[C@@H](NC(=O)[C@H](C)NC(=O)CNC(=O)[C@H](CCCCN)NC(=O)[C@H](CC(N)=O)NC(=O)[C@H](CC(C)C)NC(=O)[C@H](CC(C)C)NC(=O)[C@H](CC(C)C)NC(=O)[C@H](CC(=O)O)NC(=O)[C@H](CCC(=O)O)NC(=O)[C@H](C)NC(=O)[C@H](Cc1ccccc1)NC(=O)[C@H](Cc1ccccc1)N(C)C(=O)[C@@H](NC(=O)[C@H](CC(C)C)N(C)C(=O)[C@H](CCCCN)NC(=O)[C@@H](N)CCC(N)=O)C(C)C)[C@@H](C)CC)[C@@H](C)CC)C(=O)N[C@H](C(=O)NCC(=O)NCC(=O)N[C@H](C(=O)N[C@H](C(=O)O)C(C)C)C(C)C)C(C)C", "note": "[L3-LF] (H-QK[NMeL]V[NMeF]FAEDLLLNKGAIIGL[Nle]VGGVV-OH)", "values": [{"measurement": "Effect on formation of cytotoxic IAPP assemblies (MTT reduction)", "setting": "[1]; RIN5fm cells", "value": "fully suppressed; also recorded: suppress formation of toxic IAPP assemblies"}, {"measurement": "IC50", "setting": "[1]", "value": 133, "unit": "nM"}]}, {"molecule": "CCCC[C@H](NC(=O)[C@H](CC(C)C)NC(=O)CNC(=O)[C@@H](NC(=O)[C@@H](NC(=O)[C@H](C)NC(=O)CNC(=O)[C@H](CCCCN)NC(=O)[C@H](CC(N)=O)NC(=O)[C@H](CC(C)C)NC(=O)[C@H](CC(C)C)NC(=O)[C@H](CC(C)C)NC(=O)[C@H](CC(=O)O)NC(=O)[C@H](CCC(=O)O)NC(=O)[C@H](C)NC(=O)[C@H](Cc1ccccc1)N(C)C(=O)[C@H](Cc1ccccc1)NC(=O)[C@H](C(C)C)N(C)C(=O)[C@H](CC(C)C)NC(=O)[C@H](CCCCN)NC(=O)[C@@H](N)CCC(N)=O)[C@@H](C)CC)[C@@H](C)CC)C(=O)N[C@H](C(=O)NCC(=O)NCC(=O)N[C@H](C(=O)N[C@H](C(=O)O)C(C)C)C(C)C)C(C)C", "note": "[L3-VF] (H-QKL[NMeV]F[NMeF]AEDLLLNKGAIIGL[Nle]VGGVV-OH)", "values": [{"measurement": "Effect of addition to TAMRA-oAβ42 on Aβ42 phagocytosis", "setting": "[3]", "value": "increased Aβ42 phagocytosis"}, {"measurement": "Effect on LTP impairment mediated by preformed Aβ42 oligomers", "setting": "[4]", "value": "suppress LTP impairment mediated by preformed Aβ42 oligomers"}, {"measurement": "IC50", "setting": "[5]", "value": 261, "unit": "nM"}, {"measurement": "Effect on formation of cytotoxic IAPP assemblies (MTT reduction)", "setting": "[1]; RIN5fm cells", "value": "fully suppressed; also recorded: suppress formation of toxic IAPP assemblies"}, {"measurement": "IC50", "setting": "[1]", "value": 113, "unit": "nM"}]}, {"molecule": "CCCC[C@H](NC(=O)[C@H](CC(C)C)NC(=O)CNC(=O)[C@@H](NC(=O)[C@@H](NC(=O)[C@H](C)NC(=O)CNC(=O)[C@H](CCCCN)NC(=O)[C@H](CC(N)=O)NC(=O)[C@H](Cc1ccccc1)NC(=O)[C@H](Cc1ccccc1)NC(=O)[C@H](Cc1ccccc1)NC(=O)[C@H](CC(=O)O)NC(=O)[C@H](CCC(=O)O)NC(=O)[C@H](C)NC(=O)[C@H](Cc1ccccc1)NC(=O)[C@H](Cc1ccccc1)N(C)C(=O)[C@@H](NC(=O)[C@H](CC(C)C)N(C)C(=O)[C@H](CCCCN)NC(=O)[C@@H](N)CCC(N)=O)C(C)C)[C@@H](C)CC)[C@@H](C)CC)C(=O)N[C@H](C(=O)NCC(=O)NCC(=O)N[C@H](C(=O)N[C@H](C(=O)O)C(C)C)C(C)C)C(C)C", "note": "[F3-LF] (H-QK[NMeL]V[NMeF]FAEDFFFNKGAIIGL[Nle]VGGVV-OH)", "values": [{"measurement": "Effect on LTP impairment mediated by preformed Aβ42 oligomers", "setting": "[4]", "value": "suppress LTP impairment mediated by preformed Aβ42 oligomers"}, {"measurement": "IC50", "setting": "[5]", "value": 262, "unit": "nM"}, {"measurement": "Effect on formation of cytotoxic IAPP assemblies (MTT reduction)", "setting": "[1]; RIN5fm cells", "value": "fully suppressed; also recorded: suppress formation of toxic IAPP assemblies"}, {"measurement": "IC50", "setting": "[1]", "value": 41.7, "unit": "nM"}]}, {"molecule": "CCCC[C@H](NC(=O)[C@H](CC(C)C)NC(=O)CNC(=O)[C@@H](NC(=O)[C@@H](NC(=O)[C@H](C)NC(=O)CNC(=O)[C@H](CCCCN)NC(=O)[C@H](CC(N)=O)NC(=O)[C@H](Cc1ccccc1)NC(=O)[C@H](Cc1ccccc1)NC(=O)[C@H](Cc1ccccc1)NC(=O)[C@H](CC(=O)O)NC(=O)[C@H](CCC(=O)O)NC(=O)[C@H](C)NC(=O)[C@H](Cc1ccccc1)N(C)C(=O)[C@H](Cc1ccccc1)NC(=O)[C@H](C(C)C)N(C)C(=O)[C@H](CC(C)C)NC(=O)[C@H](CCCCN)NC(=O)[C@@H](N)CCC(N)=O)[C@@H](C)CC)[C@@H](C)CC)C(=O)N[C@H](C(=O)NCC(=O)NCC(=O)N[C@H](C(=O)N[C@H](C(=O)O)C(C)C)C(C)C)C(C)C", "note": "[F3-VF] (H-QKL[NMeV]F[NMeF]AEDFFFNKGAIIGL[Nle]VGGVV-OH)", "values": [{"measurement": "IC50", "setting": "[5]", "value": 1030, "unit": "nM"}, {"measurement": "Effect of addition to preformed fIAPP on fIAPP cytotoxicity (MTT reduction)", "setting": "[1]; RIN5fm cells, ACM 33 μM added to fIAPP […], 1 day, fIAPP 500 nM", "value": "does not affect fIAPP cytotoxicity"}, {"measurement": "Effect on formation of cytotoxic IAPP assemblies (MTT reduction)", "setting": "[1]; RIN5fm cells", "value": "fully suppressed; also recorded: suppress formation of toxic IAPP assemblies"}, {"measurement": "IC50", "setting": "[1]", "value": 78.5, "unit": "nM"}]}]}
